Patent publication US20060063828A1 (priority 2004, published 2006)

Tests used:
Balb/C mice = assay: Asthma Protocol (ovalbumin sensitized and challenged mice, bronchoaveolar lavage cell counts); format: in vivo; conditions: ovalbumin sensitized and aerosol challenged, lavage fluid cell counts
Description: Balb/C mice (6-8 weeks old) are sensitized to ovalbumin (ova) (8 ug ova absorbed in 3.3 mg Alum inject) on days 0 and 5. On day 12, the mice were aerosol challenged with 0.5% ovalbumin dissolved in sterile saline for 1 h in the AM, and then again in the PM (at least 4 h apart). On day 14, the mice were anesthetized with ketamine/xylazine/acepromazine cocktail, exsanguinated, and then euthanized. Following blood collection, bronchoaveolar lavage was performed on each animal. Total cell counts were conducted on the lavage fluid. The lavage fluid was processed and slides were made by spinning the samples with a cytospin centrifuge. Slides were airdried and stained using Diff-Quik® stain. Cell differentials of the lavage fluid were completed at the conclusion of the study. Statistical analysis involved ANOVA and Tukey-Kramer post hoc tests. Compounds were administered by subcutaneous injection twice daily from day 11-13. The formulations used contained various mixtures of the following excipients (pharmasolve, cremophor RH 40, tween 80, PEG 300). See Biological Table 3

Male Lewis rats = assay: Rheumatoid Arthritis Protocol (adjuvant-induced paw swelling); format: in vivo; conditions: M. butyricum adjuvant
Description: Male Lewis rats (150-175 g) from Charles River Laboratories were anesthetized on day 0 with 3-5% isoflurane anesthesia while the tail base was shaved and adjuvant mixture was injected. 50 μL of adjuvant (10 mg/ml M. butyricum in mineral oil) was injected subcutaneously into two sites at the tail base. Paw swelling was monitored using a plethysmometer (UGO Basile), after shaving each leg to the level of the Achilles tendon to mark the level of immersion. A baseline paw measurement for both hindpaws was taken between […] a second measurement was taken on day 8. Onset of paw swelling occurred rapidly between days 8-11 and daily measurements were performed every weekday between day 8 and day 14. Compounds of the invention and vehicles were dosed therapeutically (d8-13) after swelling was confirmed. Solutions were injected subcutaneously or given orally by gavage 1-2 times per day. From day 0, rats were weighed on days 0, 8, 11, and 14 and overall health was monitored. Plasma drug levels, if desired, were measured in tail-vein derived blood samples taken on day 13. On day 14, blood samples were obtained by cardiac puncture, rats were euthanized with CO2, selected organs were removed and both hindpaws were amputated and placed in 10% buffered formalin for histopathological analysis. See Biological Table 2.

VCAM-1 = assay: In Vitro VCAM-1 Assay (ELISA of VCAM-1 on TNF-α stimulated endothelial cells); format: cell-based; conditions: Endothelial cell; primary human aortic (HAEC) or pulmonary (HPAEC) endothelial cells, TNF-α (1 ng/ml), approximately 16 hours
Description: Cell Culture and compound dosing: Cultured primary human aortic (HAEC) or pulmonary (HPAEC) endothelial cells were obtained from Clonetics, Inc., and were used below passage 9. Cells were seeded in 96 well plates such that they would reach 90-95% confluency by the following day. On the following day the cells were stimulated with TNF-α (1 ng/ml) in the presence or absence of compounds dissolved in DMSO such that the final concentration of DMSO is 0.25% or less. To establish a dose curve for each compound, four concentrations in 2- to 5-fold increments were used. Cells were exposed to TNF-α and compounds for approximately 16 hours. The next day the cells were examined under microscope to score for visual signs of toxicity or cell stress.
Following 16 hr exposure to TNF-α and compound the media was discarded and the cells were washed once with Hanks Balanced Salt Solution (HBSS)/Phosphate buffered saline (PBS) (1:1). Primary antibodies against VCAM-1 (0.25 μg/ml in HBSS/PBS+5% FBS) were added and incubated for 30-60 minutes at 37° C. Cells were washed with HBSS/PBS three times, and secondary antibody Horse Radish Peroxidase (HRP)-conjugated goat anti-mouse IgG (1:500 in HBSS/PBS+5% FBS) were added and incubated for 30 minutes at 37° C. Cells were washed with HBSS/PBS four time and TMB substrate were added and incubated at room temperature in the dark until there was adequate development of blue color. The length of time of incubation was typically 5-15 minutes. 2N sulfuric acid was added to stop the color development and the data was collected by reading the absorbance on a BioRad ELISA plate reader at OD 450 nm. The results are expressed as IC50 values (the concentration (micromolar) of compound required to inhibit 50% of the maximal response of the control sample stimulated by TNF-α only).

Row | IC50 (VCAM-1) | melting point | Compound | % Inhibition 6 mg/kg sq, bid, d11-13 (Balb/C mice) | % Inhibition 20 mg/kg sq, bid, d8-13 (Male Lewis rats)
1 | < 1 µM |  | C=C(C(=O)c1ccc(C(=O)O)cc1)c1cc(-c2cccs2)ccc1OC [Example 8, 4-[2-(2-Methoxy-5-thien-2-yl-phenyl)-acryloyl]-benzoic acid] | 50% | 44%
2 | < 1 µM | 193 to 195 °C | C=C(C(=O)c1c(OC)ccc(-c2cccs2)c1OC)c1ccc(C(=O)O)cc1 [Example 30, 4-[1-(2,6-Dimethoxy-3-thien-2-yl-benzoyl)-vinyl]-benzoic acid] | 45% | 77%
